Measurements published in ChEMBL document CHEMBL5608163, “Structure modification of anoplin for fighting resistant bacteria” (Eur J Med Chem, 2024).
≈ marks a conversion by molar mass, not a printed value. Square brackets hold non-standard residues; d marks the D form. Peptide text beside a SMILES is read from it. 2Nal = N[C@@H](Cc1ccc2ccccc2c1)C(=O)O; hIle = CC[C@H](C)C[C@H](N)C(=O)O; Cha = N[C@@H](CC1CCCCC1)C(=O)O

What was measured:
Erythrocyte = assay: Hemolytic activity in mouse erythrocyte assessed as hemolysis incubated for 1 hr by microplate reader analysis; type: toxicity, cell-based
Klebsiella pneumoniae = assay: Antibacterial activity against Klebsiella pneumoniae ATCC 700603 assessed as reduction in bacterial growth incubated for 18 hrs by CLSI-based Mueller-Hinton broth dilution method; type: functional
Staphylococcus aureus [1] = assay: Antimicrobial activity against Staphylococcus aureus ATCC 25923 assessed as reduction in microbial growth incubated for 18 hrs by CLSI-based Mueller-Hinton broth dilution method; type: functional
Pseudomonas aeruginosa [2] = assay: Antibacterial activity against Pseudomonas aeruginosa ATCC 27853 assessed as reduction in bacterial growth incubated for 18 hrs by CLSI-based Mueller-Hinton broth dilution method; type: functional
[3] = tested on: Staphylococcus epidermidis; assay: Antibacterial activity against Staphylococcus epidermidis ATCC 12228 assessed as reduction in bacterial growth incubated for 18 hrs by CLSI-based Mueller-Hinton broth dilution method; type: functional
Bacillus subtilis = assay: Antibacterial activity against Bacillus subtilis ATCC 23857 assessed as reduction in bacterial growth incubated for 18 hrs by CLSI-based Mueller-Hinton broth dilution method; type: functional
Escherichia coli [4] = assay: Antibacterial activity against Escherichia coli ML-35 ATCC 43837 assessed as reduction in bacterial growth incubated for 18 hrs by CLSI-based Mueller-Hinton broth dilution method; type: functional
Acinetobacter baumannii = assay: Antibacterial activity against Acinetobacter baumannii ATCC 19606 assessed as reduction in bacterial growth incubated for 18 hrs by CLSI-based Mueller-Hinton broth dilution method; type: functional
Pseudomonas aeruginosa [5] = assay: Antibacterial activity against Pseudomonas aeruginosa ATCC 27853 assessed as reduction in microbial growth incubated for 16 to 20 hrs by CLSI protocol based Muller Hinton broth assay; type: functional; details: time 16-20 hrs
[6] = Hemolytic activity in human RBC assessed as hemolysis measured after 24 hrs; type: toxicity, cell-based, Erythrocyte; details: red blood cells
Escherichia coli [7] = assay: Antibacterial activity against Escherichia coli ATCC 25922 assessed as reduction in microbial growth incubated for 16 to 20 hrs by CLSI protocol based Muller Hinton broth assay; type: functional; details: time 16-20 hrs
Staphylococcus aureus [8] = assay: Antibacterial activity against methicillin-resistant Staphylococcus aureus ATCC 33591 assessed as reduction in bacterial growth incubated for 18 hrs by agar dilution method; type: functional
Enterococcus faecium = assay: Antibacterial activity against vancomycin resistant Enterococcus faecium ATCC 700221 assessed as inhibition of bacterial growth incubated for 48 hrs by CLSI-based broth microdilution assay; type: functional

Structure (SMILES) | HC10 (Erythrocyte) [µM] | MIC (Klebsiella pneumoniae) [µM] | MIC (Staphylococcus aureus [1]) [µM] | MIC (Pseudomonas aeruginosa [2]) [µM] | MIC [3] [µM] | MIC (Bacillus subtilis) [µM] | MIC (Escherichia coli [4]) [µM] | MIC (Acinetobacter baumannii) [µM] | MIC (Pseudomonas aeruginosa [5]) [µM] | HC50 at 24 h [6] [µM] | MIC (Escherichia coli [7]) [µM] | MIC (Staphylococcus aureus [8]) [µM] | MIC (Enterococcus faecium) [µM]
CCCCC(=O)NCCCC[C@@H](NC(=O)[C@@H](NC(=O)[C@H](CCCNC(=N)N)NC(=O)[C@@H](CCCCN)NC(=O)[C@H](CC(C)C)NC(=O)[C@H](CC(C)C)NC(=O)CN)[C@@H](C)CC)C(=O)N[C@H](C(=O)N[C@@H](CC(C)C)C(=O)N[C@@H](CC(C)C)C(N)=O)[C@@H](C)O | > 256 | > 128 | > 128 | 64 (≈ 79.2 µg/mL) | 128 (≈ 158 µg/mL) | 64 (≈ 79.2 µg/mL) | 128 (≈ 158 µg/mL) | > 128 | – | – | – | – | –
CC[C@H](C)[C@H](NC(=O)[C@H](CCCNC(=N)N)NC(=O)[C@H](CCCCN)NC(=O)[C@H](CC(C)C)NC(=O)[C@H](Cc1ccc2ccccc2c1)NC(=O)CN)C(=O)N[C@@H](CCCCN)C(=O)N[C@H](C(=O)N[C@@H](CC(C)C)C(=O)N[C@@H](CC(C)C)C(N)=O)[C@@H](C)O (H-G[2Nal]LKRIKTLL-NH2) | – | – | – | – | – | – | – | – | 9.5 | 52.8 | 15.8 | 15.8 (≈ 19.6 µg/mL) | 15.8 (≈ 19.6 µg/mL)
CCCCCCC(=O)NCCCC[C@@H](NC(=O)[C@H](CC(C)C)NC(=O)[C@H](CC(C)C)NC(=O)CN)C(=O)N[C@@H](CCCNC(=N)N)C(=O)N[C@H](C(=O)N[C@H](CCCCN)C(=O)N[C@H](C(=O)N[C@@H](CC(C)C)C(=O)N[C@@H](CC(C)C)C(N)=O)[C@@H](C)O)[C@@H](C)CC | > 256 | > 128 | > 128 | 64 (≈ 81 µg/mL) | 128 (≈ 162 µg/mL) | 32 (≈ 40.5 µg/mL) | > 128 | > 128 | – | – | – | – | –
CCCCC(=O)NCCCC[C@@H](NC(=O)[C@H](CC(C)C)NC(=O)[C@H](CC(C)C)NC(=O)CN)C(=O)N[C@@H](CCCNC(=N)N)C(=O)N[C@H](C(=O)N[C@H](CCCCN)C(=O)N[C@H](C(=O)N[C@@H](CC(C)C)C(=O)N[C@@H](CC(C)C)C(N)=O)[C@@H](C)O)[C@@H](C)CC | > 256 | > 128 | > 128 | > 128 | > 128 | > 128 | > 128 | > 128 | – | – | – | – | –
CC[C@H](C)C[C@H](NC(=O)[C@H](CCCNC(=N)N)NC(=O)[C@H](CCCCN)NC(=O)[C@H](CC(C)C)NC(=O)[C@H](CC(C)C)NC(=O)CN)C(=O)N[C@@H](CCCCN)C(=O)N[C@H](C(=O)N[C@@H](CC1CCCCC1)C(=O)N[C@@H](CC(C)C)C(N)=O)[C@@H](C)O (H-GLLKR[hIle]KT[Cha]L-NH2) | – | – | – | – | – | – | – | – | 28.4 | 234 | 28.4 | 47.4 (≈ 57.2 µg/mL) | 28.4 (≈ 34.3 µg/mL)
CCCCCCCCCCCCCCC(=O)NCCCC[C@@H](NC(=O)[C@@H](NC(=O)[C@H](CCCNC(=N)N)NC(=O)[C@@H](CCCCN)NC(=O)[C@H](CC(C)C)NC(=O)[C@H](CC(C)C)NC(=O)CN)[C@@H](C)CC)C(=O)N[C@H](C(=O)N[C@@H](CC(C)C)C(=O)N[C@@H](CC(C)C)C(N)=O)[C@@H](C)O | 16 | 32 (≈ 44.1 µg/mL) | 16 | 32 (≈ 44.1 µg/mL) | 4 (≈ 5.51 µg/mL) | 8 (≈ 11 µg/mL) | 64 (≈ 88.2 µg/mL) | 8 (≈ 11 µg/mL) | – | – | – | – | –
CCCCCCCCCCCCC(=O)NCCCC[C@@H](NC(=O)[C@H](CC(C)C)NC(=O)[C@H](CC(C)C)NC(=O)CN)C(=O)N[C@@H](CCCNC(=N)N)C(=O)N[C@H](C(=O)N[C@H](CCCCN)C(=O)N[C@H](C(=O)N[C@@H](CC(C)C)C(=O)N[C@@H](CC(C)C)C(N)=O)[C@@H](C)O)[C@@H](C)CC | 32 | 8 (≈ 10.8 µg/mL) | 4 | 4 (≈ 5.4 µg/mL) | 4 (≈ 5.4 µg/mL) | 2 (≈ 2.7 µg/mL) | 4 (≈ 5.4 µg/mL) | 4 (≈ 5.4 µg/mL) | – | – | – | – | –
CCCCCCC(=O)NCCCC[C@@H](NC(=O)[C@@H](NC(=O)[C@H](CCCNC(=N)N)NC(=O)[C@@H](CCCCN)NC(=O)[C@H](CC(C)C)NC(=O)[C@H](CC(C)C)NC(=O)CN)[C@@H](C)CC)C(=O)N[C@H](C(=O)N[C@@H](CC(C)C)C(=O)N[C@@H](CC(C)C)C(N)=O)[C@@H](C)O | 256 | 128 (≈ 162 µg/mL) | 128 | 32 (≈ 40.5 µg/mL) | 16 (≈ 20.3 µg/mL) | 8 (≈ 10.1 µg/mL) | 32 (≈ 40.5 µg/mL) | 32 (≈ 40.5 µg/mL) | – | – | – | – | –
CCCCCCCCC(=O)NCCCC[C@@H](NC(=O)[C@H](CC(C)C)NC(=O)[C@H](CC(C)C)NC(=O)CN)C(=O)N[C@@H](CCCNC(=N)N)C(=O)N[C@H](C(=O)N[C@H](CCCCN)C(=O)N[C@H](C(=O)N[C@@H](CC(C)C)C(=O)N[C@@H](CC(C)C)C(N)=O)[C@@H](C)O)[C@@H](C)CC | > 256 | 128 (≈ 166 µg/mL) | 16 | 32 (≈ 41.4 µg/mL) | 8 (≈ 10.4 µg/mL) | 4 (≈ 5.18 µg/mL) | 32 (≈ 41.4 µg/mL) | 32 (≈ 41.4 µg/mL) | – | – | – | – | –
